This is an account of results in ChEMBL document CHEMBL5550085, “A new small molecule DoNA binding to CAG repeat RNA” (Bioorg Med Chem, 2024).

Calls of active or inactive are those of the source. No cut-off for these calls is given here.

Common to all, as to type: nucleic-acid assay
The test system of test [1] is RNA. Nature of the test: Binding affinity to 5' (CAG)2 repeat RNA overhang (unknown origin) at 2 uM by SPR analysis. In general terms: In SPR one partner is held on a chip, and binding of the other changes the refractive index at the surface.
Test [2] concerns RNA. Nature of the test: Binding affinity to 5' (CAG)2 repeat RNA overhang (unknown origin) by SPR analysis. The settings on record: dose 0.063-2 µM.
The test system of test [3] is RNA. The test is described as follows: Binding affinity to (CAG)10 repeat RNA (unknown origin) assessed as association constant by SPR analysis.
In test [4] the test system is RNA. Nature of the test: Binding affinity to 5' (CAG)3 repeat RNA overhang (unknown origin) at 2 uM by SPR analysis.
Test [5] relates to RNA. Nature of the test: Binding affinity to 5' (CAG)3 repeat RNA overhang (unknown origin) by SPR analysis. The settings on record: dose 0.063-2 µM.
The test system of test [6] is RNA. The test is described as follows: Binding affinity to (CAG)3 repeat RNA (unknown origin) at 0.063 to 2 uM by SPR analysis. Particulars: dose 0.063-2 µM.
The test system of test [7] is RNA. Nature of the test: Binding affinity to (CAG)10 repeat RNA (unknown origin) by SPR analysis. Particulars: dose 1.0 µM.
Test [8] relates to RNA. The test is described as follows: Binding affinity to (CAG)10 repeat RNA (unknown origin) assessed as dissociation rate constant by SPR analysis.
For test [9], the system named is RNA. The test is described as follows: Binding affinity to (CAG)3 repeat RNA hairpin loop (unknown origin) by SPR analysis. The settings on record: dose 0.063-2 µM.
Test [10] concerns RNA. The test is described as follows: Binding affinity to 3' (CAG) repeat RNA hairpin loop (unknown origin) at 2 uM by SPR analysis.
The subject of test [11] is RNA. The test is described as follows: Binding affinity to 5' (CAG) repeat RNA hairpin loop (unknown origin) at 2 uM by SPR analysis.
In test [12] the test system is RNA. Nature of the test: Binding affinity to (CAG)2 repeat RNA hairpin loop (unknown origin) by SPR analysis.
Test [13] concerns RNA. Nature of the test: Binding affinity to (CAG)10 repeat RNA internal loop (unknown origin) by SPR analysis.
Test [14] has as its system RNA. The test is described as follows: Binding affinity to 3' (CAG)2 repeat RNA overhang (unknown origin) at 0.063 to 2 uM by SPR analysis. The settings on record: dose 0.063-2 µM.
Test [15] concerns the target RNA. Nature of the test: Binding affinity to (CAG)10 repeat RNA (unknown origin) assessed as dissociation constant by SPR analysis.
Test [16] relates to RNA. The test is described as follows: Binding affinity to (CAG)10 repeat RNA (unknown origin) at 20 uM by CSI-TOF MS analysis.
The subject of test [17] is RNA. The test is described as follows: Binding affinity to (CAG)2 repeat RNA (unknown origin) at 0.063 to 2 uM by SPR analysis. The settings on record: dose 0.063-2 µM.
Test [18] relates to RNA. Nature of the test: Binding affinity to (CAG)10 repeat RNA (unknown origin) at 2 uM by SPR analysis.
Test [19] has as its system RNA. Nature of the test: Binding affinity to CAG repeat RNA overhang (unknown origin).
Test [20] deals with RNA. The test is described as follows: Binding affinity to CAG repeat RNA terminal (unknown origin).

What is called Kd is the constant that tells how readily two partners part at equilibrium. Consider `Cc1ccc2ccc(NC(=O)CCN(CCCCCN(CCC(=O)NCc3ccc4ccc(=O)[nH]c4n3)CCC(=O)Nc3ccc4ccc(C)nc4n3)CCC(=O)NCc3ccc4ccc(=O)[nH]c4n3)nc2n1`, for which the result in the test on RNA [1], in the test on RNA [4] and in the test on RNA [12] was inactive. In addition, the Activity result in the test on RNA [2], with RNA [5], with RNA [7] and in the test with RNA [9] was “Dose-Dependent Effect” throughout. Besides, the Ka with RNA [3] is 0.47 10^4/M/s. The outcome with RNA [6], in the test with RNA [10], in the test on RNA [11], in the test on RNA [13], with RNA [14] and in the test with RNA [16] was Active. For the same compound, in the test on RNA [17], the result was Active. In the test on RNA [8], the Kdiss is 2.9 10^-2/s. Further, the Kd on RNA [15] worked out at 6.1 µM.
For the compound `Cc1ccc2ccc(NC(=O)CCNCCC(=O)NCc3ccc4ccc(=O)[nH]c4n3)nc2n1`, the outcome in the test on RNA [18], in the test on RNA [19] and with RNA [20] was inactive.
